What was measured:
[1] = system: TGF-β signaling; experiment: Assay for evaluating cellular inhibition of TGF-β signaling, HEK293 (SBE reporter) luciferase reporter; format: cell-based; settings: Homo sapiens; HEK293 (SBE reporter) stable cells, 0.5% FBS, 2 h pre-treatment, TGF-β1 2 ng/mL 24 h; read-out: IC50 HEK 293 Cell
Experimental: [Example 2] Assay for Evaluating Cellular Inhibition of TGF-β Signaling
4T1 (SBE-luc2P) transient pool that have SBE-luc2P (hygro) expression plasmid or HEK293 (SBE reporter) stable cells (BPS bioscience) were seeded at 6×10^3 cells/well or 2.5×10^4 cells/well in 96-well plate, respectively. 4T1 (SBE-luc2P) transient pool were pre-treated with novel compound synthesized in Example 1 above in 0.2% FBS at approximately 60% confluence at 37° C. in 5% CO2. Also, HEK293 (SBE reporter) stable cells were pre-treated with each test compounds of formula in 0.5% FBS at approximately 80% confluence at 37° C. in 5% CO2. After 2 hours, cells were treated with TGF-β1 (2 ng/mL) for 24 h at 37° C. in 5% CO2. Cell lysates were prepared using Luciferase Assay (Promega) according to the manufacturer's instruction, and luminescence was measured by a plate reader, Biotek Synergy H1 (Vermont, USA).

[2] = target: T1, ALK5 kinase (Homo sapiens, UniProt P36897); experiment: LanthaScreen Eu Kinase Binding Assay; settings: Kinase Tracer 178, Eu-anti-GST Antibody, read-out: IC50 Enzyme
T1 sequence (P36897 34-503): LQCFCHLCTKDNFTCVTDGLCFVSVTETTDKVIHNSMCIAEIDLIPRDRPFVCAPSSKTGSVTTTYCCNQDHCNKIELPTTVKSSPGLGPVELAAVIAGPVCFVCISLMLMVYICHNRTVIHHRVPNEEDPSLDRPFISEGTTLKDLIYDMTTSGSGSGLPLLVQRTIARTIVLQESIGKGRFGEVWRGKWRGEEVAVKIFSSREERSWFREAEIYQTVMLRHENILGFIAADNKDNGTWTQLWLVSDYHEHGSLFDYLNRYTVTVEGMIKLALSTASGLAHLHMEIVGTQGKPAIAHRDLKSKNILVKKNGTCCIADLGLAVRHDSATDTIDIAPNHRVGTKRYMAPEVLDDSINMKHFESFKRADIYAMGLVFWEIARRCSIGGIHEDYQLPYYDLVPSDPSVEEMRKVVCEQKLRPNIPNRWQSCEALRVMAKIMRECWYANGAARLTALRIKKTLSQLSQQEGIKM
In short: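 Tracer-displacement TR-FRET: after 30 min RT compound–kinase preincubation, Eu-labelled anti-GST antibody plus Kinase Tracer 178 were incubated 60 min at RT. Binding was read as a lower 665 nm/615 nm emission ratio (excitation 340 nm).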

For `CCc1nc(-c2ccccc2)c(Oc2ccnc(Nc3ccc(-c4cn[nH]c4)cn3)c2)s1` [A-213, N-(5-(1H-Pyrazol-4-yl)pyridin-2-yl)-4-((2-ethyl-4-phenylthiazol-5-yl)oxy)pyridin-2-amine], the IC50 [1] was < 100 nM.

In the case of `CCc1nc(-c2ccccc2)c(Oc2ccnc(Nc3ccc(N4CCC(N)C4)cc3)c2)s1` (stereo not shown) [A-214, N-(4-(3-Aminopyrrolidin-1-yl)phenyl)-4-((2-ethyl-4-phenylthiazol-5-yl)oxy)pyridin-2-amine], the IC50 [1] is reported as < 100 nM.

With `CCc1nc(-c2ccccc2)c(Oc2ccnc(Nc3ccc(N4CCC(NC)C4)cc3)c2)s1` (stereo not shown) [A-215, 4-((2-Ethyl-4-phenylthiazol-5-yl)oxy)-N-(4-(3-(methylamino)pyrrolidin-1-yl)phenyl)pyridin-2-amine] the IC50 [1] was < 100 nM.

With `CCc1nc(-c2ccccc2)c(Oc2ccnc(Nc3cccc(C(N)=O)n3)n2)s1` [A-241, 6-((4-((2-Ethyl-4-phenylthiazol-5-yl)oxy)pyrimidin-2-yl)amino)picolinamide] the IC50 [1] was < 100 nM.

In the case of `CCc1nc(-c2ccccc2)c(Oc2ccnc(Nc3cc(C(N)=O)ccn3)n2)s1` [A-242, 2-((4-((2-Ethyl-4-phenylthiazol-5-yl)oxy)pyrimidin-2-yl)amino)isonicotinamide], the IC50 [1] is reported as > 100 nM.

`CCc1nc(-c2ccccc2)c(Oc2ccnc(Nc3cccc(C(N)=O)c3)n2)s1` [A-243, 3-((4-((2-Ethyl-4-phenylthiazol-5-yl)oxy)pyrimidin-2-yl)amino)benzamide] was tested, and the IC50 [1] was < 100 nM.

In the case of `CCc1nc(-c2ccccc2)c(Oc2ccnc(Nc3ccc(C(=O)O)cn3)n2)s1` [A-244, 6-((4-((2-Ethyl-4-phenylthiazol-5-yl)oxy)pyrimidin-2-yl)amino)nicotinic acid], the IC50 [1] is reported as > 100 nM.

For `CCc1nc(-c2ccccc2)c(Oc2ccnc(Nc3ccc(C(N)=O)cn3)n2)s1` [A-245, 6-((4-((2-Ethyl-4-phenylthiazol-5-yl)oxy)pyrimidin-2-yl)amino)nicotinamide], the IC50 [1] was > 100 nM.

For `CCc1nc(-c2ccccc2)c(Oc2ccnc(Nc3ccc(C(=O)O)cc3)n2)s1` [A-246, 4-((4-((2-Ethyl-4-phenylthiazol-5-yl)oxy)pyrimidin-2-yl)amino)benzoic acid], the IC50 [1] was < 100 nM.

`CCc1nc(-c2cccc(C)n2)c(Oc2ccnc(Nc3ccnc(C(N)=O)c3)c2)s1` [A-264, 4-((4-((2-Ethyl-4-(6-methylpyridin-2-yl)thiazol-5-yl)oxy)pyridin-2-yl)amino)picolinamide] was tested, and the IC50 [1] was < 100 nM and the IC50 [2] was < 100 nM.

For `CCc1nc(-c2cccc(C)n2)c(Oc2ccnc(Nc3ccc(C(=O)NCCN(C)C)cn3)c2)s1` [A-269, N-(2-(Dimethylamino)ethyl)-6-((4-((2-ethyl-4-(6-methylpyridin-2-yl)thiazol-5-yl)oxy)pyridin-2-yl)amino)nicotinamide], the IC50 [1] was < 100 nM and the IC50 [2] was < 100 nM.

For `CCc1nc(-c2cccc(C)n2)c(Oc2ccnc(Nc3ccc(C(=O)OCC4CC4)cn3)c2)s1` [A-270], the IC50 [1] was < 100 nM and the IC50 [2] was < 100 nM.

`CCc1nc(-c2cccc(C)n2)c(Oc2ccnc(Nc3ccc(C(=O)OCCN(C)C)cn3)c2)s1` [A-271, 2-(Dimethylamino)ethyl 6-((4-((2-ethyl-4-(6-methylpyridin-2-yl)thiazol-5-yl)oxy)pyridin-2-yl)amino)nicotinate] was tested, and the IC50 [1] was < 100 nM and the IC50 [2] was < 100 nM.

With `CCc1nc(-c2cccc(C)n2)c(Oc2ccnc(Nc3cccc(NS(C)(=O)=O)c3)c2)s1` [A-272, N-(3-((4-((2-ethyl-4-(6-methylpyridin-2-yl)thiazol-5-yl)oxy)pyridin-2-yl)amino)phenyl)methanesulfonamide] the IC50 [1] was < 100 nM.

In the case of `CCc1nc(-c2cccc(C)n2)c(Oc2ccnc(Nc3ccc(C(=O)Nc4cc(F)cc(C(=O)OCCN(C)C)c4)cn3)c2)s1` [A-273, 2-(Dimethylamino)ethyl 3-(6-((4-((2-ethyl-4-(6-methylpyridin-2-yl)thiazol-5-yl)oxy)pyridin-2-yl)amino)nicotinamido)-5-fluorobenzoate], the IC50 [1] is reported as > 100 nM.

With `Cc1cccc(-c2nc(C3CC3)sc2Oc2ccnc(Nc3cc(C(N)=O)ccn3)c2)n1` [A-276, 2-((4-((2-Cyclopropyl-4-(6-methylpyridin-2-yl)thiazol-5-yl)oxy)pyridin-2-yl)amino)isonicotinamide] the IC50 [1] was < 100 nM and the IC50 [2] was < 100 nM.

In the case of `Cc1cccc(-c2nc(C3CC3)sc2Oc2ccnc(Nc3cccc(S(N)(=O)=O)c3)c2)n1` [A-277, 3-((4-((2-Cyclopropyl-4-(6-methylpyridin-2-yl)thiazol-5-yl)oxy)pyridin-2-yl)amino)benzenesulfonamide], the IC50 [1] is reported as < 100 nM and the IC50 [2] is reported as < 100 nM.

For `Cc1cccc(-c2nc(C3CC3)sc2Oc2ccnc(Nc3cccc(C(N)=O)n3)c2)n1` [A-278, 6-((4-((2-Cyclopropyl-4-(6-methylpyridin-2-yl)thiazol-5-yl)oxy)pyridin-2-yl)amino)picolinamide], the IC50 [1] was < 100 nM and the IC50 [2] was < 100 nM.

In the case of `CNC(=O)c1cccc(Nc2cc(Oc3sc(C4CC4)nc3-c3cccc(C)n3)ccn2)n1` [A-279, 6-((4-((2-Cyclopropyl-4-(6-methylpyridin-2-yl)thiazol-5-yl)oxy)pyridin-2-yl)amino)-N-methylpicolinamide], the IC50 [1] is reported as < 100 nM and the IC50 [2] is reported as < 100 nM.

For `CNC(=O)c1ccnc(Nc2cc(Oc3sc(C4CC4)nc3-c3cccc(C)n3)ccn2)c1` [A-280, 2-((4-((2-Cyclopropyl-4-(6-methylpyridin-2-yl)thiazol-5-yl)oxy)pyridin-2-yl)amino)-N-methylisonicotinamide], the IC50 [1] was < 100 nM and the IC50 [2] was < 100 nM.

In the case of `CNC(=O)c1cccc(Nc2cc(Oc3sc(C4CC4)nc3-c3cccc(C)n3)ccn2)c1` [A-281, 3-((4-((2-Cyclopropyl-4-(6-methylpyridin-2-yl)thiazol-5-yl)oxy)pyridin-2-yl)amino)-N-methylbenzamide], the IC50 [1] is reported as < 100 nM.

In the case of `CNC(=O)c1ccc(Nc2cc(Oc3sc(C4CC4)nc3-c3cccc(C)n3)ccn2)nc1` [A-282, 6-((4-((2-Cyclopropyl-4-(6-methylpyridin-2-yl)thiazol-5-yl)oxy)pyridin-2-yl)amino)-N-methylnicotinamide], the IC50 [1] is reported as < 100 nM.

`O=C(O)c1ccc(Nc2cc(Oc3oc(C4CC4)nc3-c3ccccc3)ccn2)nc1` [A-293, 6-((4-((2-Cyclopropyl-4-phenyloxazol-5-yl)oxy)pyridin-2-yl)amino)nicotinic acid] was tested, and the IC50 [1] was < 100 nM and the IC50 [2] was < 100 nM.

With `NC(=O)c1ccc(Nc2cc(Oc3oc(C4CC4)nc3-c3ccccc3)ccn2)nc1` [A-294, 6-((4-((2-Cyclopropyl-4-phenyloxazol-5-yl)oxy)pyridin-2-yl)amino)nicotinamide] the IC50 [1] was < 100 nM and the IC50 [2] was < 100 nM.

In the case of `NC(=O)c1cccc(Nc2cc(Oc3oc(C4CC4)nc3-c3ccccc3)ccn2)c1` [A-296, 3-((4-((2-Cyclopropyl-4-phenyloxazol-5-yl)oxy)pyridin-2-yl)amino)benzamide], the IC50 [1] is reported as < 100 nM.

For `CNC(=O)c1cccc(Nc2cc(Oc3oc(C4CC4)nc3-c3ccccc3)ccn2)c1` [A-297, 3-((4-((2-Cyclopropyl-4-phenyloxazol-5-yl)oxy)pyridin-2-yl)amino)-N-methylbenzamide], the IC50 [1] was < 100 nM.

With `NS(=O)(=O)c1cccc(Nc2cc(Oc3oc(C4CC4)nc3-c3ccccc3)ccn2)c1` [A-298, 3-((4-((2-Cyclopropyl-4-phenyloxazol-5-yl)oxy)pyridin-2-yl)amino)benzenesulfonamide] the IC50 [1] was < 100 nM.

With `NC(=O)c1cccc(Nc2cc(Oc3oc(C4CC4)nc3-c3ccccc3)ccn2)n1` [A-299, 6-((4-((2-Cyclopropyl-4-phenyloxazol-5-yl)oxy)pyridin-2-yl)amino)picolinamide] the IC50 [1] was < 100 nM.

For `O=C(O)c1cccc(Nc2cc(Oc3oc(C4CC4)nc3-c3ccccc3)ccn2)c1` [A-300, 3-((4-((2-Cyclopropyl-4-phenyloxazol-5-yl)oxy)pyridin-2-yl)amino)benzoic acid], the IC50 [1] was < 100 nM.

`O=C(O)c1cccc(Nc2cc(Oc3oc(C4CC4)nc3-c3ccccc3)ccn2)n1` [A-301, 6-((4-((2-Cyclopropyl-4-phenyloxazol-5-yl)oxy)pyridin-2-yl)amino)picolinic acid] was tested, and the IC50 [1] was < 100 nM.

For `CNC(=O)c1cccc(Nc2cc(Oc3oc(C4CC4)nc3-c3ccccc3)ccn2)n1` [A-302, 6-((4-((2-Cyclopropyl-4-phenyloxazol-5-yl)oxy)pyridin-2-yl)amino)-N-methylpicolinamide], the IC50 [1] was < 100 nM.

For `CCc1nc(-c2ccccc2)c(Oc2ccnc(Nc3ccc(N4CCC(NC)C4)cn3)c2)s1` (stereo not shown) [A-312, 4-((2-Ethyl-4-phenylthiazol-5-yl)oxy)-N-(5-(3-(methylamino)pyrrolidin-1-yl)pyridin-2-yl)pyridin-2-amine], the IC50 [1] was < 100 nM.

Source: US20250206730A1 (AUTOTELIC BIO INC., priority 2022, published 2025)
